# According to patent US20070173496A1, “Novel polymorph E of Olanzapine and preparation of anhydrous non-solvated crystalline polymorphic Form I of 2-methyl-4(4-methyl-1-piperazinyl)-10H-thieno[2,3-b][1,5] benzodiazepine (Olanzapine Form I) from the polymorphic Olanzapine Form E” (priority 2006, published 2007):
# Key:
# [1] = color stability of Olanzapine Form I on exposure at room temperature / in air; type: physicochemical; details: Form I from Form E by rapid crystallization in methylene chloride-methanol and step-wise drying, at least 3 months
# Source text: In another aspect of this invention the new poly-type Olanzapine Form E generated with rapid crystallization in methylene chloride-methanol along with step-wise drying techniques produces non-solvated anhydrous Form I of 2-methyl-4-(4-methyl-1-piperazinyl)-10H-thieno[2,3-b][1,5] benzodiazepine which is stable enough to be used commercially in pharmaceutical formulations.
# [2] = commercially available Form I prepared by prior art methods (U.S. Pat. No. 5,229,382); cited from earlier work
# [3] = solid-state stability of poly-type Form E at room temperature; type: physicochemical; details: step-wise drying converts it to Form I
# Source text: The new poly-type E is stable at room temperature but when subjected to step-wise drying techniques results in substantially pure Olanzapine Form I.
Compound,color change during exposure at room temperature [1],color change over time due to exposure in air [2],stability at room temperature [3]
"Cc1cc2c(s1)Nc1ccccc1N=C2N1CCN(C)CC1 [Olanzapine Form I, 2-methyl-4-(4-methyl-1-piperazinyl)-10H-thieno[2,3-b][1,5] benzodiazepine]",No color change,color is found to change over time,
"Cc1cc2c(s1)Nc1ccccc1N=C2N1CCN(C)CC1 [poly-type E, 2-methyl-4-(4-methyl-1-piperazinyl)-10H-thieno[2,3-b][1,5] benzodiazepine]",,,stable
